{
  "source": "patent US12297161B2",
  "about": "“Process for making sarecycline hydrochloride” (PARATEK PHARMACEUTICALS, INC., priority 2018, dated 2025)",
  "origin": "cited, not measured here",
  "key": {"[1]": {"tested_on": "aerobic Gram-negative gastrointestinal (GI) organisms", "details": "compared with minocycline and doxycycline"}, "[2]": {"details": "in vivo"}},
  "data": [
    {"smiles": "CON(C)Cc1ccc(O)c2c1C[C@H]1C[C@H]3[C@H](N(C)C)C(O)=C(C(N)=O)C(=O)[C@@]3(O)C(O)=C1C2=O", "note": "[Sarecycline, (4S, 4aS, 5aR, 12aS)-4-dimethylamino-3, 10, 12, 12a-tetrahydroxy-7-[(methoxy (methyl)amino)-methyl]-1, 11-dioxo-1,4,4a, 5,5a, 6, 11, 12a-octahydro-naphthacene-2-carboxylic acid amide]", "values": [
      {"measurement": "antibacterial activity against aerobic Gram-negative gastrointestinal (GI) organisms", "setting": "[1]", "result": "more limited activity against aerobic Gram-negative gastrointestinal (GI) organisms than minocycline and doxycycline"},
      {"measurement": "inflammatory lesions of moderate to severe acne vulgaris", "setting": "[2]", "result": "reduce inflammatory lesions"}
    ]}
  ]
}
